± gives the expanded uncertainty stated by the source.

For series [1] the following is noted: Liquid; for Critical pressure: Direct measurement; for Critical temperature: Visual observation in an unstirred cell.
Series [2] can be described thus: xn = mol fraction of the nth substance listed. Particulars: Liquid.

In the case of `FC(OC(F)(F)F)C(F)(F)F` (stereo not drawn) [1,1,1,2-tetrafluoro-2-(trifluoromethoxy)ethane], in series [1], the Critical density came to 580 ± 4 kg/m3, the Critical pressure is 2621 ± 4 kPa and the Critical temperature came out at 377.26 ± 0.06 K.

For `FC(OC(F)(F)F)C(F)(F)F` (stereo not drawn) [1,1,1,2-tetrafluoro-2-(trifluoromethoxy)ethane] + COC(F)(F)C(F)(F)F, the Critical density in series [2] (x1 = 0.1694) was 510 ± 6 kg/m3; in series [2] (x1 = 0.2941), 521 ± 6 kg/m3; in series [2] (x1 = 0.4706), 536 ± 6 kg/m3; in series [2] (x1 = 0.6565), 554 ± 6 kg/m3; in series [2] (x1 = 0.7952) it was 566 ± 7 kg/m3; in series [2] (x1 = 1), 580 ± 7 kg/m3.

`FC(OC(F)(F)F)C(F)(F)F` (stereo not drawn) [1,1,1,2-tetrafluoro-2-(trifluoromethoxy)ethane] + COC(F)(F)F: the Critical density in series [2] (x1 = 0.1455) was 480 ± 6 kg/m3; in series [2] (x1 = 0.2585), 506 ± 6 kg/m3; in series [2] (x1 = 0.4147) it was 523 ± 6 kg/m3; in series [2] (x1 = 0.5954), 539 ± 6 kg/m3; in series [2] (x1 = 0.7403), 558 ± 7 kg/m3; in series [2] (x1 = 1) it was 580 ± 7 kg/m3.

`COC(F)(F)C(F)(F)F` [methyl pentafluoroethyl ether]: in series [1], the Critical density is on record as 491 ± 6 kg/m3, the Critical pressure was 2885 ± 6 kPa and the Critical temperature came to 406.82 ± 0.06 K.

Regarding `COC(F)(F)C(F)(F)F` [methyl pentafluoroethyl ether] + FC(OC(F)(F)F)C(F)(F)F, the Critical density in series [2] (x2 = 0) came out at 491 ± 6 kg/m3.

As to `COC(F)(F)F` [trifluoromethoxymethane], in series [1], the Critical density stood at 459 ± 5 kg/m3, the Critical pressure was determined as 3640 ± 6 kPa and the Critical temperature amounted to 377.92 ± 0.06 K.

As to `COC(F)(F)F` [trifluoromethoxymethane] + FC(OC(F)(F)F)C(F)(F)F, the Critical density in series [2] (x2 = 0) amounted to 459 ± 5 kg/m3.

The values above are taken from the NIST ThermoML archive (doi:10.1021/je700123q).
